Test results published in patent publication EP0748792A1 (priority 1994, dated 1995).

Experiments:
[1] = test system: total acetylating capability of the organism; assay: Acetylating capability of white rats (sodium sulfacyl acetylation, arylamine content in urine); type: in vivo; settings: agent 20 mg/kg i.p. 4 days; for Acetylating properties of the organism: Na sulfacyl acetylating in the organism of rats; for Sulfacyl isolation M ± m In acetylated form / Sulfacyl isolation M ± m In free form / Sulfacyl isolation M ± m Total: Na sulfacyl excretion in urine; for % of excretion from the dose In acetylated form / % of excretion from the dose In free form / Concentration in urine In acetylated form / Concentration in urine In free form: Na sulfacyl; for Excretion % from the dose: total Na sulfacyl excretion in urine
Protocol: It is known that intact animals, receiving sufficient doses of pantothenic acid, have accelerated reactions of arylamine biotransformation. Therefore, there is the possibility to regulate the acetylating processes in the bodies of people and animals. In the examples given below the total acetylating capability of the organism was assessed using the method of quantitative determination of the arylamine content in the urine examined.
As a subject for acetylating, aromatic amines were chosen, as their usage makes it possible to assess both the activity of N-acetylamine transferase and (indirectly) the content of acetyl CoA.
As a subject for examination sodium sulfacyl was chosen. […] 14 animals were included in each group. The examined agent was injected intraperitoneally at a dose of 20 mg/kg. On the 4th day, 4 hours after the last injection of the examined agent, the sodium sulfacyl solution in a dose of 20 mg/kg was injected intraperitoneally. All the rats were separated into exchangeable cages for urine gathering. The collected data were compared with the control groups of animals (group I - only sodium sulfacyl in a dose of 20 mg/kg, and group II - calcium pantothenate).

white non-linear mice [2] = settings: administered perorally; species not given; cited from earlier work
non-linear white rats = assay: Subchronic toxicity in rats (2 months); type: in vivo
Protocol: 70 non-linear white rats of both sexes with average stated mass of 72 ± 5 g, divided into 7 groups, were used in the experiment. The first three groups of animals received ketopantothenate in 0.2 ml of distilled water in doses: 13.2 mg/kg (therapeutic dose of calcium D-pantothenate), 132 and 264 mg/kg (doses 10 and 20 times larger than the therapeutic dose) internally every day during the experiment. The next three groups of animals received the same doses of calcium D-pantothenate under the same conditions for comparison. The 7th group was the control one and included intact animals. The weighing of the animals was carried out once a week. Permanent observation on development and state of rats was carried out. […] The growth of the mass of the rats receiving ketopantothenate in different doses was 3.7 - 6.0 % higher than the growth of the mass of rats from the control group (correspondingly to doses). The growth of the mass of the rats receiving calcium D-pantothenate in comparison with the control group was approximately the same.
When the experiment was over the animals were slaughtering and the internal organs were examined visually.

white non-linear mice [3] = assay: Acute toxicity in mice; type: in vivo
Protocol: The animals were distributed into 7 groups, 6 animals in each group.
The mice were under observation for 14 days. Starting from the dose of 6g/kg in the first 2 hours after the agent administration the intoxication symptoms were observed: inertia, quickened breathing. Then these symptoms passed without consequences. The mice in all groups were practically healthy, no deviations in the state and behavior of the animals were observed.

CC(C)(CO)[C@@H](O)C(=O)NCCC(=O)O [Ca D-pantothenate, calcium D-pantothenate, reference compound]
Acetylating properties of the organism [1]: 24.0 | Sulfacyl isolation M ± m In acetylated form ([1]; sulfacyl 20 mg/kg i.p.): 0.67 ± 0.04 | Sulfacyl isolation M ± m In free form ([1]; sulfacyl 20 mg/kg i.p.): 2.12 ± 0.09 | Sulfacyl isolation M ± m Total ([1]; sulfacyl 20 mg/kg i.p.): 2.79 ± 0.19 | % of excretion from the dose In acetylated form ([1]; rats): 22.3 ± 1.8% | % of excretion from the dose In free form ([1]; rats): 70.7 ± 6.0% | Concentration in urine In acetylated form ([1]; rats): 0.172 mg/mL | Concentration in urine In free form ([1]; rats): 0.54 mg/mL | Excretion % from the dose [1]: 93.0% | LD50 (white non-linear mice [2]): 5920 mg/kg | Mass Final (non-linear white rats; rat, in vivo, 13.2 mg/kg): 187.5 ± 18.4 | Mass growth during the experiment (non-linear white rats; rat, in vivo, 13.2 mg/kg): 117.2 ± 7.7 g | Mass growth during the experiment % to the control (non-linear white rats; rat, in vivo, 13.2 mg/kg): 104.2% | Mass Final (non-linear white rats; rat, in vivo, 132 mg/kg): 193.0 ± 14.6 | Mass growth during the experiment (non-linear white rats; rat, in vivo, 132 mg/kg): 118.7 ± 10.4 g | Mass growth during the experiment % to the control (non-linear white rats; rat, in vivo, 132 mg/kg): 105.3% | Mass Final (non-linear white rats; rat, in vivo, 264 mg/kg): 186.1 ± 16.2 | Mass growth during the experiment (non-linear white rats; rat, in vivo, 264 mg/kg): 114.9 ± 8.8 g | Mass growth during the experiment % to the control (non-linear white rats; rat, in vivo, 264 mg/kg): 102.2%

calcium ketopantothenate [Ca ketopantothenate]
dose from which intoxication symptoms (inertia, quickened breathing) were observed (white non-linear mice [3]; mice, single internal dose, first 2 hours after administration, symptoms passed without consequences): ≥ 6000 mg/kg | dose that was not toxic (white non-linear mice [3]; mouse, in vivo, po, 336 h): 8000 mg/kg | Acetylating properties of the organism [1]: 25.9 | Sulfacyl isolation M ± m In acetylated form ([1]; sulfacyl 20 mg/kg i.p.): 0.73 ± 0.05 | Sulfacyl isolation M ± m In free form ([1]; sulfacyl 20 mg/kg i.p.): 2.09 ± 0.17 | Sulfacyl isolation M ± m Total ([1]; sulfacyl 20 mg/kg i.p.): 2.82 ± 0.19 | % of excretion from the dose In acetylated form ([1]; rats): 23.1 ± 1.8% | % of excretion from the dose In free form ([1]; rats): 66.1 ± 3.2% | Concentration in urine In acetylated form ([1]; rats): 0.221 mg/mL | Concentration in urine In free form ([1]; rats): 0.63 mg/mL | total acetylating capability of the organism of white rats (N-acetylation of aromatic amines) ([1]; rats): increased significantly | excretion of acetylated product in comparison with the control group ([1]; rats, sulfacyl 20 mg/kg i.p.): tripled | excretion of free product, lower than the control group ([1]; rats, sulfacyl 20 mg/kg i.p.): 10% | Excretion % from the dose [1]: 89.2% | irritation of internal organs (visual examination) (non-linear white rats; rat, in vivo): No irritation | Mass Final (non-linear white rats; rat, in vivo, 13.2 mg/kg): 187.6 ± 12.5 | Mass growth during the experiment (non-linear white rats; rat, in vivo, 13.2 mg/kg): 116.6 ± 8.2 g | Mass growth during the experiment % to the control (non-linear white rats; rat, in vivo, 13.2 mg/kg): 103.7% | Mass Final (non-linear white rats; rat, in vivo, 132 mg/kg): 193.6 ± 17.3 | Mass growth during the experiment (non-linear white rats; rat, in vivo, 132 mg/kg): 119.3 ± 10.3 g | Mass growth during the experiment % to the control (non-linear white rats; rat, in vivo, 132 mg/kg): 106.0% | Mass Final (non-linear white rats; rat, in vivo, 264 mg/kg): 190.1 ± 21.0 | Mass growth during the experiment (non-linear white rats; rat, in vivo, 264 mg/kg): 117.6 ± 11.0 g | Mass growth during the experiment % to the control (non-linear white rats; rat, in vivo, 264 mg/kg): 104.5% | toxicity when used over a prolonged period (non-linear white rats; rats, 13.2, 132 and 264 mg/kg internally every day, 2 months): not toxic
